Results from PubChem BioAssay (NCI).
Values joined by “and” are separate entries in the source; they are usually repeats but may differ in a detail not shown here. Identical values can stand only once.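 Assay format: 96-well plates, 48-hour exposure. GI50 is the concentration that inhibits growth by half. Definition used: TGI = concentration required for complete inhibition of growth.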

Experiments:
Experiment in all cases: inhibition of tumour cell growth, NCI panel, 48 h
TK-10 renal = system: TK-10 renal
U251 CNS = system: U251 CNS
CCRF-CEM leukemia = system: CCRF-CEM leukemia
MOLT-4 leukemia = system: MOLT-4 leukemia
KM12 colon = system: KM12 colon
M19-MEL melanoma = system: M19-MEL melanoma
HT29 colon = system: HT29 colon
SNB-78 CNS = system: SNB-78 CNS
SNB-75 CNS = system: SNB-75 CNS
HOP-92 NSCLC = system: HOP-92 NSCLC

SMILES	TGI (TK-10 renal) [µM]	TGI (U251 CNS) [µM]	TGI (CCRF-CEM leukemia)	TGI (MOLT-4 leukemia) [µM]	TGI (KM12 colon)	TGI (M19-MEL melanoma) [µM]	TGI (HT29 colon) [µM]	TGI (SNB-78 CNS)	TGI (SNB-75 CNS)	TGI (HOP-92 NSCLC) [µM]	GI50 (SNB-75 CNS)	GI50 (U251 CNS) [µM]	GI50 (CCRF-CEM leukemia) [µM]	GI50 (MOLT-4 leukemia) [µM]	GI50 (KM12 colon) [µM]	GI50 (M19-MEL melanoma) [µM]	GI50 (HT29 colon) [µM]	GI50 (SNB-78 CNS) [µM]	GI50 (HOP-92 NSCLC) [µM]
COc1ccc(/C=C/C(=O)c2c(-c3ccccc3)nn(C)c(=O)c2N2CC2C)cc1 (stereo not given)	> 100	85.6	73.9 µM	> 100	> 100 µM	> 100	> 100	63.1 µM	73.9 µM	> 100									
N#C/C(=C\c1ccc(O)cc1)C(N)=O	> 100	> 100	> 100 µM	> 100	> 100 µM	> 100	> 100	> 100 µM	> 94.3 µM and 54.7 µM	> 100	> 49.9 µM and 12.7 µM								
O=C(N/C(=C\c1ccc([N+](=O)[O-])cc1)c1nc2ccccc2s1)c1ccccc1	61.9	> 100	66.3 µM	48	92.1 µM	53.9	> 100	> 100 µM	63.5 µM	68.8									
O=P(CN1CCOCC1)(c1ccccc1)c1ccccc1	> 100	> 100	> 100 µM	> 100	> 100 µM	> 100	> 100	> 100 µM	> 100 µM	> 100									
CC1[C@@]2(CCC(C)(C)O2)O[C@@H]2C=C3C4CCC5Cc6nc7c(nc6C[C@@]5(C)C4C[C@H](O)[C@@]3(C)[C@]12O)CC1CCC2C3=C[C@H]4O[C@@]5(O[C@@](C)(CO)C[C@@H]5O)C(C)[C@@]4(O)[C@]3(C)[C@@H](O)CC2[C@]1(C)C7 (stereo not given in full)	0.981		0.106 µM and 0.018 µM		0.624 µM and 0.572 µM	0.791		0.464 µM and 0.312 µM			< 0.000365 µM	0.00043	0.0017	0.00141	0.0446	0.336	0.00179	0.0015	0.00228
COC(=O)CC1(O)C(=O)OCc2c1cc1n(c2=O)Cc2c-1nc1ccccc1c2OC (stereo not given)	> 100	2.11	0.594 µM	0.165	> 100 µM	> 100	> 100	> 100 µM	3.56 µM	92.2									
CC1NOC(=O)C1N=Nc1cccc(Cl)c1 (stereo not given)	> 100	60.2	57.7 µM	86.7	> 100 µM	91.7	77	> 100 µM	92.2 µM	> 100									
